This note sets out measurements from US8927721B2, “Naphthyridine derivative” (Shionogi & Co., Ltd., priority 2010, dated 2015).

T1 sequence (P56817 46-501): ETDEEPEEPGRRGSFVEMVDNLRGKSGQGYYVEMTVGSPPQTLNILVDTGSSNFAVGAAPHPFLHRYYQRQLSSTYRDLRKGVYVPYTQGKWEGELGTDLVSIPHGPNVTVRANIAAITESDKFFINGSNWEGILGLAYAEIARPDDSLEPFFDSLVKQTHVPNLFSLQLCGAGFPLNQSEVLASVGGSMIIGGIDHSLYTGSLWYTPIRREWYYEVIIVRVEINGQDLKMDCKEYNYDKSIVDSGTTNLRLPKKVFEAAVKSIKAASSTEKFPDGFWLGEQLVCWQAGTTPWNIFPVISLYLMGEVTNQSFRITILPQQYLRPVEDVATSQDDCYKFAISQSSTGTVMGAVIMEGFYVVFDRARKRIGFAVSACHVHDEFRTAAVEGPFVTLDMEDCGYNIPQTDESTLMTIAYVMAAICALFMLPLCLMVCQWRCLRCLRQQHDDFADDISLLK

This experiment concerns the target T1, Recombinant human BACE1 (Homo sapiens, UniProt P56817).
T1 construct: purchased R&D Systems
Description: Assay of BACE1 inhibitory activity. Type of experiment: biochemical. The conditions noted are these: Recombinant human BACE1, 30° C., 3 hours, pH 5.0; read-out: IC50 (50% inhibitory concentration against the enzymatic activity). Here is the method:
48.5 μL of substrate peptide solution (Biotin-XSEVNLDAEFRHDSGC-Eu: X=ε-amino-n-capronic acid, Eu=Europium cryptate) was added to each well of 96-hole half-area plate (a black plate: Costar), and after addition of 0.5 μl of the compound of the present invention (N,N′-dimethylformamide solution) and 1 μl of Recombinant human BACE1(R&D Systems), the reaction mixture was incubated at 30° C. for 3 hours. The substrate peptide was synthesized by reacting Cryptate TBPCOOH mono SMP (CIS bio international) with Biotin-XSEVNLDAEFRHDSGC (Peptide Institute, Inc.). The final concentrations of the substrate peptide and Recombinant human BACE1 were adjusted to 18 nmol/L and 7.4 nmol/L, respectively, and the reaction was performed in sodium acetate buffer (50 mmol/L sodium acetate, pH 5.0, 0.008% Triton X-100). After the incubation for reaction, 50 μl of 8.0 μg/ml Streptavidin-XL665 (CIS bio international) dissolved in phosphate buffer (150 mmol/L K2HPO4—KH2PO4, pH 7.0, 0.008% Triton X-100, 0.8 mol/L KF) was added to each well and left stand at 30° C. for 1 hour. After then, fluorescence intensity was measured (excitation wavelength: 320 nm, measuring wavelength: 620 nm and 665 nm) using Wallac 1420 multilabel counter (Perkin Elmer life sciences). Enzymatic activity was determined from counting ratio of each wavelength (10,000×Count 665/Count 620) and 50% inhibitory concentration against the enzymatic activity (IC50) was calculated.
In the case of `CC1(c2cc(NC(=O)c3ccc(Cl)cn3)ccc2F)Cc2ccncc2C(N)=N1` (centres unmarked) [Compound I-3], the IC50 was ≤ 1 µM.
Then `CC1(c2cc(NC(=O)c3ccc(C#N)cn3)ccc2F)Cc2cccnc2C(N)=N1` (centres unmarked) [Compound I-4], with ≤ 1 µM; and `CC1(c2cc(NC(=O)c3ccc(C#N)cn3)ccc2F)Cc2cncc(F)c2C(N)=N1` (centres unmarked) [Compound I-6], with ≤ 1 µM.
With `CC1(c2cc(NC(=O)c3ccc(C#N)cn3)ccc2F)Cc2ccncc2C(N)=N1` (centres unmarked) [Compound I-8] the figure was ≤ 1 µM.
As for `CC1(c2cc(NC(=O)c3ccc(C#N)cn3)ccc2F)Cc2c(ccnc2F)C(N)=N1` (centres unmarked) [Compound I-10], the IC50 is ≤ 1 µM.
As to `CC1(c2cc(NC(=O)c3ccc(Cl)cn3)ccc2F)Cc2cnccc2C(N)=N1` (centres unmarked) [Compound I-11], the IC50 was ≤ 1 µM.
For `CC1(c2cc(NC(=O)c3ncc(F)cc3F)ccc2F)Cc2cnccc2C(N)=N1` (centres unmarked) [Compound I-12], the IC50 is ≤ 1 µM.
Then `CC1(c2cc(NC(=O)c3ccc(C(F)(F)F)cn3)ccc2F)Cc2cnccc2C(N)=N1` (centres unmarked) [Compound I-13], with ≤ 1 µM.
Regarding `COc1cnc(C(=O)Nc2ccc(F)c(C3(C)Cc4cnccc4C(N)=N3)c2)cn1` (centres unmarked) [Compound I-14], the IC50 is ≤ 1 µM.
On to `Cc1cnc(C(=O)Nc2ccc(F)c(C3(C)Cc4cnccc4C(N)=N3)c2)cn1` (centres unmarked) [Compound I-15], for which the IC50 is ≤ 1 µM.
With `CC#CCOc1cnc(C(=O)Nc2ccc(F)c(C3(C)Cc4cnccc4C(N)=N3)c2)cn1` (centres unmarked) [Compound I-16], the IC50 is ≤ 1 µM.
With `CC1(c2cc(NC(=O)c3ccc(Cl)cn3)ccc2F)Cc2c(F)cncc2C(N)=N1` (centres unmarked) [Compound I-17] the figure was ≤ 1 µM; with `CC1(c2cc(NC(=O)c3ncc(F)cc3F)ccc2F)Cc2c(F)cncc2C(N)=N1` (centres unmarked) [Compound I-18], ≤ 1 µM.
Turning to `CC1(c2cc(NC(=O)c3ccc(C(F)(F)F)cn3)ccc2F)Cc2c(F)cncc2C(N)=N1` (centres unmarked) [Compound I-19], the IC50 was ≤ 1 µM.
For `COc1cnc(C(=O)Nc2ccc(F)c(C3(C)Cc4c(F)cncc4C(N)=N3)c2)cn1` (centres unmarked) [Compound I-20], the IC50 is ≤ 1 µM.
With `Cc1cnc(C(=O)Nc2ccc(F)c(C3(C)Cc4c(F)cncc4C(N)=N3)c2)cn1` (centres unmarked) [Compound I-21], the IC50 is ≤ 1 µM.
In the case of `CC#CCOc1cnc(C(=O)Nc2ccc(F)c(C3(C)Cc4c(F)cncc4C(N)=N3)c2)cn1` (centres unmarked) [Compound I-22], the IC50 was ≤ 1 µM.
With `CC1(c2cc(NC(=O)c3ccc(C(F)(F)F)cn3)ccc2F)Cc2ccncc2C(N)=N1` (centres unmarked) [Compound I-23] the figure was ≤ 1 µM; with `COc1cnc(C(=O)Nc2ccc(F)c(C3(C)Cc4ccncc4C(N)=N3)c2)cn1` (centres unmarked) [Compound I-24], ≤ 1 µM.
As for `Cc1cnc(C(=O)Nc2ccc(F)c(C3(C)Cc4ccncc4C(N)=N3)c2)cn1` (centres unmarked) [Compound I-25], the IC50 is ≤ 1 µM.
For `CC#CCOc1cnc(C(=O)Nc2ccc(F)c(C3(C)Cc4ccncc4C(N)=N3)c2)cn1` (centres unmarked) [Compound I-26], the IC50 was ≤ 1 µM.
Turning to `CC#CC(=O)Nc1ccc(F)c(C2(C)Cc3cnccc3C(N)=N2)c1` (centres unmarked) [Compound I-27], the IC50 was found to be 0.308 µM.
In the case of `CCCC#CC(=O)Nc1ccc(F)c(C2(C)Cc3cnccc3C(N)=N2)c1` (centres unmarked) [Compound I-29], the IC50 was ≤ 3 µM.
`CC1(c2cc(NC(=O)C#CC3CC3)ccc2F)Cc2cnccc2C(N)=N1` (centres unmarked) [Compound I-31]: the IC50 was ≤ 3 µM.
On to `CCCCC#CC(=O)Nc1ccc(F)c(C2(C)Cc3cnccc3C(N)=N2)c1` (centres unmarked) [Compound I-32], for which the IC50 was ≤ 3 µM.
On to `CCC#CC(=O)Nc1ccc(F)c(C2(C)Cc3cnccc3C(N)=N2)c1` (centres unmarked) [Compound I-33], for which the IC50 is ≤ 1 µM.
